pIC50: −log10 of the molar value.

The experiment addresses T1, human LCE (Homo sapiens, UniProt Q9H5J4).
T1 sequence (Q9H5J4 1-265): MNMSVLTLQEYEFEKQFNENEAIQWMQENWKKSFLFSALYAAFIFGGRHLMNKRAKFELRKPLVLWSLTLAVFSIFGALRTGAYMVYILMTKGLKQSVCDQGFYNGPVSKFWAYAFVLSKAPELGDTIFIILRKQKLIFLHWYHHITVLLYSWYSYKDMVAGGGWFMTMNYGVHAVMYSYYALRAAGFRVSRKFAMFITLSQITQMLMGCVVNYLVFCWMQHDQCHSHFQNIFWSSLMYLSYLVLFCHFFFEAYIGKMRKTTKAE
Nature of the experiment: LCE enzyme activity-inhibitory test. In kind it is biochemical. The note with it: [14C]-malonyl CoA / palmitoyl CoA substrate, 37° C., 90 minutes. The procedure, abridged: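 Human LCE (100 μg/mL in enzyme solution) was incubated 90 min at 37 °C in 100 mM potassium phosphate pH 6.5 with palmitoyl CoA, malonyl CoA, [14C]-malonyl CoA, rotenone and fatty acid-free BSA. Acid-stopped, hydrolyzed products were captured on GF/C filters and counted by scintillation. Inhibition was calculated against DMSO control.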
`O=C(N[C@H]1CCCc2ccccc21)c1cccc(S(=O)(=O)N2CCCCC2)c1` [Example 83, 3-(Piperidin-1-ylsulfonyl)-N-[(1S)-1,2,3,4-tetrahydronaphthalen-1-yl]benzamide]: the pIC50 is 5.30.
With `Cc1ccc(NC(=O)c2cccc(S(=O)(=O)N3CCCCC3)c2)cc1` [Example 84, N-(4-methylphenyl)-3-(piperidin-1-ylsulfonyl)benzamide], the negative logarithm of the IC50 (pIC50) was 5.59.
Regarding `O=C(NC1CCc2ccccc21)c1cccc(S(=O)(=O)N2CCCCC2)c1` (centres unmarked) [Example 85, N-(2,3-dihydro-1H-inden-1-yl)-3-(piperidin-1-ylsulfonyl)benzamide], the pIC50 is 5.22. This pIC50 lies 0.37 log units lower than the previous one.
As to `O=C(NCCCc1ccccc1)c1cccc(S(=O)(=O)N2CCCCC2)c1` [Example 86, N-(3-phenylpropyl)-3-(piperidin-1-ylsulfonyl)benzamide], the pIC50 was 5.52. Compared with the last compound, the pIC50 is 0.30 log units higher.
`O=C(Nc1ccc(Oc2ccccc2)cc1)c1cccc(S(=O)(=O)N2CCCCC2)c1` [Example 87, N-(4-phenoxyphenyl)-3-(piperidin-1-ylsulfonyl)benzamide] gave a negative-log IC50 (pIC50) of 6.68. This pIC50 lies 1.16 log units higher than the previous one.
The compound `O=C(Nc1ccccc1)c1cccc(S(=O)(=O)N2CCCCC2)c1` [Example 88, N-phenyl-3-(piperidin-1-ylsulfonyl)benzamide] showed a pIC50 of 5.66.
The result for `O=C(Nc1ccccc1Cl)c1cccc(S(=O)(=O)N2CCCCC2)c1` [Example 89, N-(2-chlorophenyl)-3-(piperidin-1-ylsulfonyl)benzamide] reads 5.82.
`O=C(Nc1cccc(Cl)c1)c1cccc(S(=O)(=O)N2CCCCC2)c1` [Example 90, N-(3-chlorophenyl)-3-(piperidin-1-ylsulfonyl)benzamide] gave a pIC50 of 5.02. This pIC50 lies 0.80 log units lower than the previous one.
`CC(C)Oc1ccc(NC(=O)c2cccc(S(=O)(=O)N3CCCCC3)c2)cc1` [Example 91, N-(4-isopropoxyphenyl)-3-(piperidin-1-ylsulfonyl)benzamide] gave a pIC50 of 7.51.
Then `CC(=O)c1ccc(NC(=O)c2cccc(S(=O)(=O)N3CCCCC3)c2)cc1` [Example 92, N-(4-acetylphenyl)-3-(piperidin-1-ylsulfonyl)benzamide], with 5.04.
Take `CC(O)c1ccc(NC(=O)c2cccc(S(=O)(=O)N3CCCCC3)c2)cc1` (centres unmarked) [Example 93, N-[4-(1-hydroxyethyl)phenyl]-3-(piperidin-1-ylsulfonyl)benzamide]: the pIC50 was 5.89.
On to `CC(C)(O)c1ccc(NC(=O)c2cccc(S(=O)(=O)N3CCCCC3)c2)cc1` [Example 94, N-[4-(1-hydroxy-1-methylethyl)phenyl]-3-(piperidin-1-ylsulfonyl)benzamide], for which the pIC50 was 5.29. Against the preceding compound, the pIC50 is 0.60 log units lower.
The result for `COc1ccc(NC(=O)c2cccc(S(=O)(=O)N3CCCCC3)c2)c(OC)n1` [Example 96, N-(2,6-dimethoxypyridin-3-yl)-3-(piperidin-1-ylsulfonyl)benzamide] reads 6.49.
`COc1ncccc1NC(=O)c1cccc(S(=O)(=O)N2CCCCC2)c1` [Example 97, N-(2-methoxypyridin-3-yl)-3-(piperidin-1-ylsulfonyl)benzamide]: the pIC50 was 5.60.
Regarding `O=C(Nc1ncccc1O)c1cccc(S(=O)(=O)N2CCCCC2)c1` [Example 98, N-(3-hydroxypyridin-2-yl)-3-(piperidin-1-ylsulfonyl)benzamide], the negative logarithm of the IC50 (pIC50) is 6.59.
In the case of `COc1cccnc1NC(=O)c1cccc(S(=O)(=O)N2CCCCC2)c1` [Example 99, N-(3-methoxypyridin-2-yl)-3-(piperidin-1-ylsulfonyl)benzamide], the negative logarithm of the IC50 (pIC50) is 7.44. This pIC50 lies 0.85 log units higher than the previous one.
As for `CC(C)Oc1ccc(NC(=O)c2cccc(S(=O)(=O)N3CCCCC3)c2)cn1` [Example 100, N-(6-isopropoxypyridin-3-yl)-3-(piperidin-1-ylsulfonyl)benzamide], the pIC50 is 7.41. This pIC50 and that of the compound before are within 0.2 log units of each other.
`O=C(Nc1ccc(Oc2ccccc2)nc1)c1cccc(S(=O)(=O)N2CCCCC2)c1` [Example 101, N-(6-phenoxypyridin-3-yl)-3-(piperidin-1-ylsulfonyl)benzamide] showed a pIC50 of 6.04. Compared with the last compound, the pIC50 is 1.37 log units lower.
`COc1ccc(NC(=O)c2cccc(S(=O)(=O)N3CCCCC3)c2)cn1` [Example 102, N-(6-methoxypyridin-3-yl)-3-(piperidin-1-ylsulfonyl)benzamide] had a pIC50 of 5.47.
As to `COc1cccnc1NC(=O)c1cccc(S(=O)(=O)N2CCCC2)c1` [Example 104, N-(3-methoxypyridin-2-yl)-3-(pyrrolidin-1-ylsulfonyl)benzamide], the negative logarithm of the IC50 (pIC50) is 6.80.
`O=C(Nc1cc(C2CC2)n[nH]1)c1cccc(S(=O)(=O)N2CCCCC2)c1` [Example 105, N-(3-cyclopropyl-1H-pyrazol-5-yl)-3-(piperidin-1-ylsulfonyl)benzamide] had a pIC50 of 7.08.
The result for `COc1cc(Br)cnc1NC(=O)c1cccc(S(=O)(=O)N2CCCCC2)c1` [Example 106, N-(5-bromo-3-methoxypyridin-2-yl)-3-(piperidin-1-ylsulfonyl)benzamide] reads 5.74.
Turning to `C=Cc1cnc(NC(=O)c2cccc(S(=O)(=O)N3CCCCC3)c2)c(OC)c1` [Example 107, N-(3-methoxy-5-vinylpyridin-2-yl)-3-(piperidin-1-ylsulfonyl)benzamide], the pIC50 is 6.28. This pIC50 is 0.54 log units higher than that of the compound before.
The result for `CCc1cnc(NC(=O)c2cccc(S(=O)(=O)N3CCCCC3)c2)c(OC)c1` [Example 108, N-(5-ethyl-3-methoxypyridin-2-yl)-3-(piperidin-1-ylsulfonyl)benzamide] reads 7.00.
The compound `COc1cc(-c2ccccc2)cnc1NC(=O)c1cccc(S(=O)(=O)N2CCCC2)c1` [Example 109, N-(3-methoxy-5-phenylpyridin-2-yl)-3-(pyrrolidin-1-ylsulfonyl)benzamide] gave a negative logarithm of the IC50 (pIC50) of 5.49.
For `COc1cc(Oc2ccccc2)cnc1NC(=O)c1cccc(S(=O)(=O)N2CCCC2)c1` [Example 110, N-(3-methoxy-5-phenoxypyridin-2-yl)-3-(pyrrolidin-1-ylsulfonyl)benzamide], the pIC50 was 6.68.
The result for `COc1cc(Sc2ccccc2)cnc1NC(=O)c1cccc(S(=O)(=O)N2CCCC2)c1` [Example 111, N-[3-methoxy-5-(phenylthio)pyridin-2-yl]-3-(pyrrolidin-1-ylsulfonyl)benzamide] reads 6.60; that for `COc1cc(S(=O)(=O)c2ccccc2)cnc1NC(=O)c1cccc(S(=O)(=O)N2CCCC2)c1` [Example 112, N-[3-methoxy-5-(phenylsulfonyl)pyridin-2-yl]-3-(pyrrolidin-1-ylsulfonyl)benzamide], 5.02.
Regarding `CCOc1cccnc1NC(=O)c1cccc(S(=O)(=O)N2CCCC2)c1` [Example 113, N-(3-ethoxypyridin-2-yl)-3-(pyrrolidin-1-ylsulfonyl)benzamide], the pIC50 is 6.40. This pIC50 is 1.38 log units higher than that of the compound before.
In turn, `N#Cc1nc[nH]c1NC(=O)c1cccc(S(=O)(=O)N2CCCCC2)c1` [Example 114, N-(4-cyano-1H-imidazol-5-yl)-3-(piperidin-1-ylsulfonyl)benzamide] gave a pIC50 of 5.55. Compared with the last compound, the pIC50 is 0.85 log units lower.
On to `O=C(Nc1cc(C2CC2)n[nH]1)c1cccc(S(=O)(=O)N2CCCC2)c1` [Example 115, N-(3-cyclopropyl-1H-pyrazol-5-yl)-3-(pyrrolidin-1-ylsulfonyl)benzamide], for which the pIC50 is 6.51.
Regarding `CC(C)Oc1cc(NC(=O)c2cccc(S(=O)(=O)c3ccccn3)c2)[nH]n1` [Example 116, N-(3-isopropoxy-1H-pyrazol-5-yl)-3-(pyridin-2-ylsulfonyl)benzamide], the negative-log IC50 (pIC50) was 7.92.
For the compound `CCOc1cc(NC(=O)c2cccc(S(=O)(=O)c3ccccn3)c2)[nH]n1` [Example 117, N-(3-ethoxy-1H-pyrazol-5-yl)-3-(pyridin-2-ylsulfonyl)benzamide], the negative-log IC50 (pIC50) is 6.55.
`CCCOc1cc(NC(=O)c2cccc(S(=O)(=O)c3ccccn3)c2)[nH]n1` [Example 118, N-(3-propoxy-1H-pyrazol-5-yl)-3-(pyridin-2-ylsulfonyl)benzamide] gave a pIC50 of 7.62.
The compound `CCCCOc1cc(NC(=O)c2cccc(S(=O)(=O)c3ccccn3)c2)[nH]n1` [Example 119, N-(3-butoxy-1H-pyrazol-5-yl)-3-(pyridin-2-ylsulfonyl)benzamide] showed a negative-log IC50 (pIC50) of 8.22.
The result for `COc1cccnc1NC(=O)c1cccc(S(=O)(=O)c2ccccn2)c1` [Example 120, N-(3-methoxypyridin-2-yl)-3-(pyridin-2-ylsulfonyl)benzamide] reads 6.41; that for `CC(C)c1ccc(NC(=O)c2cccc(S(=O)(=O)c3ccccn3)c2)cc1` [Example 121, N-(4-isopropylphenyl)-3-(pyridin-2-ylsulfonyl)benzamide], 6.74; that for `CC(C)Oc1ccc(NC(=O)c2cccc(S(=O)(=O)c3ccccn3)c2)nc1` [Example 122, N-(5-isopropoxypyridin-2-yl)-3-(pyridin-2-ylsulfonyl)benzamide], 6.59.
The compound `COCC(C)Oc1ccc(NC(=O)c2cccc(S(=O)(=O)c3ccccn3)c2)c(F)c1` (centres unmarked) [Example 123, N-[2-fluoro-4-(2-methoxy-1-methylethoxy)phenyl]-3-(pyridin-2-ylsulfonyl)benzamide] gave a negative-log IC50 (pIC50) of 5.57.
As to `O=C(Nc1ccc(OC(CF)CF)cc1F)c1cccc(S(=O)(=O)c2ccccn2)c1` [Example 124, N-{2-fluoro-4-[2-fluoro-1-(fluoromethyl)ethoxy]phenyl}-3-(pyridin-2-ylsulfonyl)benzamide], the pIC50 is 6.46.
Then `O=C(Nc1ccc(OC2CCCC2)cc1F)c1cccc(S(=O)(=O)c2ccccn2)c1` [Example 125, N-[4-(cyclopentyloxy)-2-fluorophenyl]-3-(pyridin-2-ylsulfonyl)benzamide], with 6.62.

For the origin of these results see patent US8420823B2, “Long-chain fatty acyl elongase inhibitor comprising arylsulfonyl derivative as active ingredient” (MSD K.K., priority 2008, dated 2013).
